{
  "source": "patent US20080181866A1",
  "about": "“Amido Anti-viral Compounds” (Genelabs Technologies, Inc., priority 2006, published 2008)",
  "data": [
    {"tested_on": "HCV replication", "experiment": "HCV replicon assay (luciferase) in ET (Huh-lucubineo-ET) cell line", "assay_type": "cell-based", "conditions": "Hepatitis C virus, tested at 5 μM; ET replicon cells; luciferase activity measured 48-72 hours later; relative to no compound control", "how_it_was_run": "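Huh-lucubineo-ET cells stably carry a subgenomic replicon with a firefly luciferase–ubiquitin–neo fusion and adaptive NS3-5B mutations; they were seeded 24 h before compound addition (0.1 nM–50 μM, 0.5% DMSO). Luciferase was read 48–72 h later as % inhibition versus no-compound control, with parallel WST-1 cytotoxicity. EC50 and TC50 came from 10-point 2-fold dilutions fitted to a Hill equation.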", "units": {"inhibition at 5 µM": "%"}, "values": [
      {"compound": "O=C(Nc1nc(-c2ccccc2)cs1)[C@@H]1CSC2(CCOCC2)N1C(=O)OCc1ccccc1", "note": "[Compound 7094, 3-(4-Phenyl-thiazol-2-ylcarbamoyl)-8-oxa-1-thia-4-aza-spiro[4.5]decane-4-carboxylic acid benzyl ester]", "inhibition at 5 µM": 88},
      {"compound": "CNC(=O)CCCCC1SC[C@@H](C(=O)Nc2nc(-c3ccc(C(=O)NC4CC4)cc3)cs2)N1C(=O)OCc1ccccc1", "note": "(some centres unmarked) [Compound 7099, 4-[4-(4-Cyclopropylcarbamoyl-phenyl)-thiazol-2-ylcarbamoyl]-2-(4-methylcarbamoyl-butyl)-thiazolidine-3-carboxylic acid benzyl ester]", "inhibition at 5 µM": 100},
      {"compound": "O=C(NCc1ccccc1)c1cccc(NC(=O)[C@@H]2CSC(c3ccncc3)N2C(=O)OCc2ccccc2)c1", "note": "(some centres unmarked) [Compound 7100, 4-(3-Benzylcarbamoyl-phenylcarbamoyl)-2-pyridin-4-yl-thiazolidine-3-carboxylic acid benzyl ester]", "inhibition at 5 µM": 80.1},
      {"compound": "O=C(NC1CC1)c1ccc(-c2csc(NC(=O)[C@@H]3CSC(Cc4ccccc4)N3C(=O)OCc3ccccc3)n2)cc1", "note": "(some centres unmarked) [Compound 7101, 2-Benzyl-4-[4-(4-cyclopropylcarbamoyl-phenyl)-thiazol-2-ylcarbamoyl]-thiazolidine-3-carboxylic acid benzyl ester]", "inhibition at 5 µM": 98.4},
      {"compound": "O=C(NC1CC1)c1ccc(-c2csc(NC(=O)[C@@H]3CSC(C4CCOCC4)N3C(=O)CC3CC3)n2)cc1", "note": "(some centres unmarked) [Compound 7104, 3-(2-Cyclopropyl-acetyl)-2-(tetrahydropyran-4-yl)-thiazolidine-4-carboxylic acid [4-(4-cyclopropylcarbamoyl-phenyl)-thiazol-2-yl]-amide]", "inhibition at 5 µM": 100},
      {"compound": "CN(C(=O)[C@@H]1CSC(c2ccncc2)N1C(=O)OCc1ccccc1)c1nc(-c2ccc(C(=O)NC3CC3)cc2)cs1", "note": "(some centres unmarked) [Compound 7106, 4-{[4-(4-Cyclopropylcarbamoyl-phenyl)-thiazol-2-yl]-methyl-carbamoyl}-2-pyridin-4-yl-thiazolidine-3-carboxylic acid benzyl ester]", "inhibition at 5 µM": 32.9},
      {"compound": "O=C(NC1CC1)c1ccc(NC(=O)[C@@H]2CSC(C3CCOCC3)N2C(=O)OCc2ccccc2)cc1", "note": "(some centres unmarked) [Compound 7107, 4-(4-Cyclopropylcarbamoyl-phenylcarbamoyl)-2-(tetrahydro-pyran-4-yl)-thiazolidine-3-carboxylic acid benzyl ester]", "inhibition at 5 µM": 10},
      {"compound": "COC(=O)CCCCC1SC[C@@H](C(=O)Nc2nc(-c3ccc(C(=O)NC4CC4)cc3)cs2)N1C(=O)OCc1ccccc1", "note": "(some centres unmarked) [Compound 7108, 4-[4-(4-Cyclopropylcarbamoyl-phenyl)-thiazol-2-ylcarbamoyl]-2-(4-methoxycarbonyl-butyl)-thiazolidine-3-carboxylic acid benzyl ester]", "inhibition at 5 µM": 99.9},
      {"compound": "O=C(Nc1ccc(CNS(=O)(=O)c2ccccc2)cc1)[C@@H]1CSC(c2ccncc2)N1C(=O)OCc1ccccc1", "note": "(some centres unmarked) [Compound 7111, 4-[4-(Benzenesulfonylamino-methyl)-phenylcarbamoyl]-2-pyridin-4-yl-thiazolidine-3-carboxylic acid benzyl ester]", "inhibition at 5 µM": 43},
      {"compound": "CN1CCC2(CC1)SC[C@@H](C(=O)Nc1nc(-c3ccc(C(=O)NC4CC4)cc3)cs1)N2C(=O)OCc1ccccc1", "note": "[Compound 7114, 3-[4-(4-Cyclopropylcarbamoyl-phenyl)-thiazol-2-ylcarbamoyl]-8-methyl-1-thia-4,8-diaza-spiro[4.5]decane-4-carboxylic acid benzyl ester]", "inhibition at 5 µM": 100},
      {"compound": "O=C(Cc1cccc(NC(=O)[C@@H]2CSC(c3ccncc3)N2C(=O)OCc2ccccc2)c1)NCc1ccccc1", "note": "(some centres unmarked) [Compound 7116, 4-[3-(Benzylcarbamoyl-methyl)-phenylcarbamoyl]-2-pyridin-4-yl-thiazolidine-3-carboxylic acid benzyl ester]", "inhibition at 5 µM": 84.9},
      {"compound": "Cc1ccc2[nH]c(Cc3ccc(NC(=O)[C@@H]4CSC(c5ccncc5)N4C(=O)OCc4ccccc4)cc3)nc2c1", "note": "(some centres unmarked) [Compound 7117, 4-[4-(5-Methyl-1H-benzoimidazol-2-ylmethyl)-phenylcarbamoyl]-2-pyridin-4-yl-thiazolidine-3-carboxylic acid benzyl ester]", "inhibition at 5 µM": 42.4},
      {"compound": "CN(C)C(=O)CCC1SC[C@@H](C(=O)Nc2nc(-c3ccc(C(=O)NC4CC4)cc3)cs2)N1C(=O)OCc1ccccc1", "note": "(some centres unmarked) [Compound 7118, 4-[4-(4-Cyclopropylcarbamoyl-phenyl)-thiazol-2-ylcarbamoyl]-2-(2-dimethylcarbamoyl-ethyl)-thiazolidine-3-carboxylic acid benzyl ester]", "inhibition at 5 µM": 99.9},
      {"compound": "O=C(Cc1ccc(NC(=O)[C@@H]2CSC(c3ccncc3)N2C(=O)OCc2ccccc2)cc1)NCCc1ccccc1", "note": "(some centres unmarked) [Compound 7119, 4-[4-(Phenethylcarbamoyl-methyl)-phenylcarbamoyl]-2-pyridin-4-yl-thiazolidine-3-carboxylic acid benzyl ester]", "inhibition at 5 µM": 1.2},
      {"compound": "CC(=O)c1cccc(C2SC[C@@H](C(=O)Nc3nc(-c4ccc(C(=O)NC5CC5)cc4)cs3)N2C(=O)OCc2ccccc2)c1", "note": "(some centres unmarked) [Compound 7120, 2-(3-Acetyl-phenyl)-4-[4-(4-cyclopropylcarbamoyl-phenyl)-thiazol-2-ylcarbamoyl]-thiazolidine-3-carboxylic acid benzyl ester]", "inhibition at 5 µM": 100},
      {"compound": "COC(=O)CCC1SC[C@@H](C(=O)Nc2nc(-c3ccc(C(=O)NC4CC4)cc3)cs2)N1C(=O)OCc1ccccc1", "note": "(some centres unmarked) [Compound 7121, 4-[4-(4-Cyclopropylcarbamoyl-phenyl)-thiazol-2-ylcarbamoyl]-2-(2-methoxycarbonyl-ethyl)-thiazolidine-3-carboxylic acid benzyl ester]", "inhibition at 5 µM": 99.8},
      {"compound": "O=C(NC1CC1)c1ccc(-c2csc(NC(=O)[C@@H]3CSC(C4CCOC4)N3C(=O)OCc3ccccc3)n2)cc1", "note": "(some centres unmarked) [Compound 7122, 4-[4-(4-Cyclopropylcarbamoyl-phenyl)-thiazol-2-ylcarbamoyl]-2-(tetrahydro-furan-3-yl)-thiazolidine-3-carboxylic acid benzyl ester]", "inhibition at 5 µM": 100},
      {"compound": "O=C(Cc1ccc(NC(=O)[C@@H]2CSC(c3ccncc3)N2C(=O)OCc2ccccc2)cc1)Nc1ccccc1", "note": "(some centres unmarked) [Compound 7126, 4-(4-Phenylcarbamoylmethyl-phenylcarbamoyl)-2-pyridin-4-yl-thiazolidine-3-carboxylic acid benzyl ester]", "inhibition at 5 µM": 93.8},
      {"compound": "NC(=O)c1cccc(NC(=O)[C@@H]2CSC(c3ccncc3)N2C(=O)OCc2ccccc2)c1", "note": "(some centres unmarked) [Compound 7127, 4-(3-carbamoyl-phenylcarbamoyl)-2-pyridin-4-yl-thiazolidine-3-carboxylic acid benzyl ester]", "inhibition at 5 µM": 25.7},
      {"compound": "COc1ccc(CNC(=O)Cc2cccc(NC(=O)[C@@H]3CSC(c4ccncc4)N3C(=O)OCc3ccccc3)c2)cc1", "note": "(some centres unmarked) [Compound 7128, 4-{3-[(4-Methoxy-benzylcarbamoyl)-methyl]-phenylcarbamoyl}-2-pyridin-4-yl-thiazolidine-3-carboxylic acid benzyl ester]", "inhibition at 5 µM": 97.5},
      {"compound": "NC(=O)c1ccc(NC(=O)[C@@H]2CSC(c3ccncc3)N2C(=O)OCc2ccccc2)cc1", "note": "(some centres unmarked) [Compound 7134, 4-(4-carbamoyl-phenylcarbamoyl)-2-pyridin-4-yl-thiazolidine-3-carboxylic acid benzyl ester]", "inhibition at 5 µM": 13.6},
      {"compound": "O=C(Cc1cccc(NC(=O)[C@@H]2CSC(c3ccncc3)N2C(=O)OCc2ccccc2)c1)NCCc1ccccc1", "note": "(some centres unmarked) [Compound 7136, 4-[3-(Phenethylcarbamoyl-methyl)-phenylcarbamoyl]-2-pyridin-4-yl-thiazolidine-3-carboxylic acid benzyl ester]", "inhibition at 5 µM": 90},
      {"compound": "O=C(NCCN1CCOCC1)c1ccc(-c2csc(NC(=O)[C@@H]3CSC4(CCOCC4)N3C(=O)OCc3ccccc3)n2)cc1", "note": "[Compound 7138, 3-{4-[4-(2-Morpholin-4-yl-ethylcarbamoyl)-phenyl]-thiazol-2-ylcarbamoyl}-8-oxa-1-thia-4-aza-spiro[4.5]decane-4-carboxylic acid benzyl ester]", "inhibition at 5 µM": 100},
      {"compound": "O=C(Nc1cccnc1)c1ccc(-c2csc(NC(=O)[C@@H]3CSC4(CCOCC4)N3C(=O)OCc3ccccc3)n2)cc1", "note": "[Compound 7139, 3-{4-[4-(Pyridin-3-ylcarbamoyl)-phenyl]-thiazol-2-ylcarbamoyl}-8-oxa-1-thia-4-aza-spiro-[4.5]decane-4-carboxylic acid benzyl ester]", "inhibition at 5 µM": 100},
      {"compound": "O=C(Nc1cccnc1)c1ccc(-c2csc(NC(=O)[C@@H]3COC4(CCOCC4)N3C(=O)OCc3ccccc3)n2)cc1", "note": "[Compound 7140, 3-{4-[4-(Pyridin-3-ylcarbamoyl)-phenyl]-thiazol-2-ylcarbamoyl}-1,8-dioxa-4-aza-spiro[4.5]decane-4-carboxylic acid benzyl ester]", "inhibition at 5 µM": 99.9},
      {"compound": "O=C(NCCN1CCOCC1)c1ccc(-c2csc(NC(=O)[C@@H]3COC4(CCOCC4)N3C(=O)OCc3ccccc3)n2)cc1", "note": "[Compound 7141, 3-{4-[4-(2-Morpholin-4-yl-ethylcarbamoyl)-phenyl]-thiazol-2-ylcarbamoyl}-1,8-dioxa-4-aza-spiro[4.5]decane-4-carboxylic acid benzyl ester]", "inhibition at 5 µM": 100}
    ]}
  ]
}
